Source: US20220193072A1, “METHODS OF TREATING BREAST CANCER WITH TETRAHYDRONAPHTHALENE DERIVATIVES AS ESTROGEN RECEPTOR DEGRADER” (Arvinas Operations, Inc., priority 2020, published 2022)
Where a chain is given by its changes, count along the chain named. Read-outs that look alike come from different tables or passages of the source.

How the values were obtained:
ERα = target: T1, ERα (Homo sapiens, UniProt P03372); test: In vivo ERα degradation in MCF7 xenograft tumors (immunoblot); set-up: species or system NOD/SCID mice; conditions: MCF7/estradiol model, fulvestrant 200 mg/kg
T1 construct: robustly degrades ER in ER-positive breast cancer cell lines; endogenous in cells; host or cells: MCF7, T47D (cell culture); MCF7 and tamoxifen-resistant MCF7 xenograft tumours in mice
T1 sequence (P03372 1-595): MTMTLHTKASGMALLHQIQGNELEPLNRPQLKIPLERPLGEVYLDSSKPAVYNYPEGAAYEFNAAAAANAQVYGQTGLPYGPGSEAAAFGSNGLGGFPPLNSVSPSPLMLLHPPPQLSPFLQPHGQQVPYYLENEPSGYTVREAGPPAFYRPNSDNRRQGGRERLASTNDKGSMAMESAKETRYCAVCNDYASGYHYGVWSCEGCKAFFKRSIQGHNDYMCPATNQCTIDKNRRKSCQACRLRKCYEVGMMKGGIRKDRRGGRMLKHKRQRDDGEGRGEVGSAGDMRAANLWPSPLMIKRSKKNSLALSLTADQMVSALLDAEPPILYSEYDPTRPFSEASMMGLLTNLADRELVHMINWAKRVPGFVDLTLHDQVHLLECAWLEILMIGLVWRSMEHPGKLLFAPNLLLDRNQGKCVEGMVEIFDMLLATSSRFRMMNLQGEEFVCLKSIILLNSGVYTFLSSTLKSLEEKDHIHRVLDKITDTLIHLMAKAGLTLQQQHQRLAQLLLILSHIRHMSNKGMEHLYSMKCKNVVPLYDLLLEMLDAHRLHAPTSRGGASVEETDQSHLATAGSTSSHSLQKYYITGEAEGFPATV
Method: Approximately 18 hours after the final administration, mice were sacrificed, and MCF7 xenografts were harvested and lysed to determine ER levels by immunoblotting. […] Diet was supplemented with peanut butter to help maintain body weights.
Species: NOD/SCID female mice (Charles River, 6-7 weeks old upon arrival).
Animal handling: Axial mammary fat pad implantation of 5×10^6 MCF7 cells/200 per mouse (17β-estradiol 0.36 mg 90-day pellet implanted day before).
Dosing: Oral (gavage), once a day (QD) for 3 days (QD×3). Vehicle: 2% Tween80/PEG400 (‘PEG/Tween’).
Sampling: Terminal sacrifice was ˜18 hrs after last dose; tumors were harvested, divided and flash frozen. ERα levels were determined by immunoblotting.
Cell Lysis: flash frozen tumors were removed from −80° C. storage and placed on dry ice. RIPA lysis buffer and Halt protease inhibitors were used at 400 μl per tumor sample. A steel ball (5 mm) was placed in each sample for tissue disruption. Samples were lysed with TissueLyzer at 24 Hz for 4 minutes. The homogenization was stopped half way through the process and the block flipped over for the duration of the process. Steel beads were pulled out of the tubes and the lysates were spun down at 21,000×g for 15 minutes at 4° C. Lysates were then measured for total protein concentration by BCA (per manufacturer's protocol).
Detection of proteins by immunoblot: lysates were mixed with sample buffer and reducing agent (per manufacturer's protocol). Samples were denatured at 95° C. for 5 minutes in thermal cycler. Samples were cooled and spun down (5000×g; 1 minute) prior to loading on gel. Gels were loaded with 10 μg total protein per lane. Samples were loaded on 4-15% Criterion Tris/Glycine gels and run for 25 minutes at 250 constant volts in 1×Tris/Glycine/SDS buffer. Protein was transferred from gels to nitrocellulose with Bio-Rad Turbo on default setting. All blots were rinsed with distilled water and blocked for 1 hour at RT in 5% BSA in TBS-T (TBS with 0.1% Tween) on rocker. The blots were cut so that beta-actin and ERα can be detected from the same lane/sample.
Blots were incubated with primary antibody in 5% BSA in TBST (0.1%) overnight at 4° C. on rocker:
Blot was washed with TBST (0.1%) three times for 5 minutes on rocker at RT. Secondary antibody was added, and blots incubated at RT on rocker for 1 hour (1:18,000 anti-rabbit-HRP in TBS-T). Blots were washed 3 times in TBST (0.1%) for 5 minutes at RT on the rocker. Signal was developed with Pierce WestFemto maximum sensitivity substrate for 5 minutes and blots imaged on BioRad ChemiDoc.
Sampling: Tumors were measured twice weekly. Terminal sacrifice was ˜18 hr after last dose; tumors were harvested, divided, and flash frozen. ERα levels were determined by immunoblotting.
At study termination, the tumors were removed from the mice, and ERα levels were determined by immunoblotting the tumor homogenates.
Sampling: tumors were measured twice weekly. Terminal sacrifice was ˜18 hr after last dose; tumors were harvested, divided, and flash frozen. ERα levels were determined by immunoblotting.

ER = target: T2, ER (Homo sapiens, UniProt P03372); conditions: after 6 months of fulvestrant treatment; cited from earlier work
T2 sequence (P03372 1-595): T1 sequence (P03372 1-595)

ESR1 (Y537S) PDX = ESR1 (Y537S) PDX model tumor growth inhibition; type: in vivo; conditions: ESR1 (Y537S) PDX, fulvestrant 200 mg/kg SC twice/week, 2 weeks
[1] = cited from earlier work; for progression free survival (PFS): minimum follow-up 18 months
MCF7 xenograft = test: MCF7 orthotopic xenograft, combination with CDK4/6 inhibitor; type: in vivo, NOD/SCID mice
ERα (ESR1 Y537S) = target: T3, ERα (ESR1 Y537S) (Homo sapiens, UniProt P03372, Y537S); test: Tumor ERα levels in ESR1 (Y537S) PDX model; type: in vivo; conditions: ESR1 (Y537S) PDX, fulvestrant 200 mg/kg SC twice/week, 2 weeks
T3 construct: a hormone-independent patient-derived xenograft model; from tissue; host or cells: ESR1 (Y537S) patient-derived xenograft tumour grown in mice
T3 sequence (P03372 1-595 Y537S): T1 sequence (P03372 1-595) with Y537S

**Q.** Which “% ERα ↓” value (ERα) does the source give for `C[C@]12CC[C@@H]3c4ccc(O)cc4C[C@@H](CCCCCCCCC[S+]([O-])CCCC(F)(F)C(F)(F)F)[C@H]3[C@@H]1CC[C@@H]2O` (stereo partly shown) [Fulvestrant] here?
**A.** Its value is “None”.

**Q.** And the “ER baseline levels remaining” value (ER)?
**A.** The value was “up to 50%”.

**Q.** What about the “tumor growth inhibition (TGI)” value (ESR1 (Y537S) PDX) of the same compound?
**A.** Its value is 62%.

**Q.** And the “progression free survival (PFS)” value ([1]; fulvestrant 250 mg)?
**A.** Its value is 5.4 months.

**Q.** What about the response rate ([1]; fulvestrant 250 mg, CI 10.5-19.4%) of the same compound?
**A.** The response rate was 14.6%.

**Q.** And the “overall survival (OS)” value ([1]; fulvestrant 250 mg)?
**A.** The value was 22.8 months.

**Q.** And the “progression free survival (PFS)” value ([1]; fulvestrant 500 mg)?
**A.** The value was 6.5 months.

**Q.** What about the response rate ([1]; fulvestrant 500 mg, 95% CI 9.7-18.8%) of the same compound?
**A.** Its response rate is 13.8%.

**Q.** And the “overall survival (OS)” value ([1]; fulvestrant 500 mg)?
**A.** Its value is 25.1 months.

**Q.** And the “Day 28 Tumor volume (mean ± SD)” value (MCF7 xenograft; fulvestrant 200 mg/kg SC)?
**A.** The value was 489 ± 154 mm^3.

**Q.** And the “TGI (% vehicle)” value (MCF7 xenograft; fulvestrant 200 mg/kg SC)?
**A.** The value was 46 % vehicle.

**Q.** What about the “tumor growth inhibition (TGI)” value (MCF7 xenograft; single agent 200 mg/kg subcutaneous, twice/week for 2 weeks) of the same compound?
**A.** Its value is 46%.

**Q.** And the “reduction of tumor ERα levels” value (ERα (ESR1 Y537S))?
**A.** Its value is 63%.
